# Measurements from publication PMC4310624 (Biochemistry, 2014).
# Columns and labels:
# [1] = tested on: class A or C enzymes; settings: ref unpublished screening work, Bethel and Bonomo; cited from earlier work
# [2] = tested on: E. coli DH10B pBCSK control; assay: Disc diffusion assay, control strain; format: cell-based, Escherichia coli; settings: cephalothin 30 μg and 30 μg of each inhibitor, 37 °C, 18 h
# [3] = tested on: E. coli DH10B pBCSK SHV-1; assay: Disc diffusion assay, SHV-1 expressing strain; format: cell-based, Escherichia coli; settings: for zone size of cephalothin combined with the inhibitor: strain expressing SHV-1
# [4] = Base hydrolysis in 1 M NaOH followed by Raman spectroscopy; format: physicochemical
# [5] = target: T1, SHV-1 (Klebsiella pneumoniae, UniProt P0AD64); settings: SHV-1, E/I = 1:10, nitrocefin assay
# T1 sequence (P0AD64 22-286): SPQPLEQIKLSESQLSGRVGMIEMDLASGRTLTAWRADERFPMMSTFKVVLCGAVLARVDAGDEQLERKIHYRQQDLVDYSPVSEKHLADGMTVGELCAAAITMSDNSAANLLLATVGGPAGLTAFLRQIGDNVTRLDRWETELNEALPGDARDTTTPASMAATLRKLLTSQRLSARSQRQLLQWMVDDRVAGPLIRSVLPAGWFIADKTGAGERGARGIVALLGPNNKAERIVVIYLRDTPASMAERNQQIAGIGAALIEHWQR
smiles,measurement,setting,value
CC1(C)[C@H](C(=O)O)N2C(=O)[C@@H](CO)[C@H]2S1(=O)=O [6α-(hydroxymethyl)penicillanic acid sulfone],inhibition in the IC50 or MIC assays,[1],did not show any inhibition
CC(=O)OCC1=C(C(=O)O)N2C(=O)[C@@H](NC(=O)Cc3cccs3)[C@H]2SC1 [cephalothin],zone diameter,[2],34 mm
same,zone diameter,"[3]; cephalothin 30 μg and 30 μg of each inhibitor, 37 °C, 18 h",6 mm
CC1(C)[C@H](C(=O)O)N2C(=O)C[C@H]2S1(=O)=O [sulbactam],zone size of cephalothin combined with the inhibitor,[3],10 mm
same,time for conversion of imine to cis-enamine,"[4]; 1 M NaOH, Raman, all imine converted",60 min
same,"time to hydrolysis to imine (lactam ring opening, imine maximum)","[4]; 1 M NaOH, room temperature, Raman",less than 3 min
same,time for iminium ion conversion to cis-enamine,"[4]; base hydrolysis, as stated in abstract",1 h
same,enzyme activity against nitrocefin after reaction with inhibitor,[5],remained fully active
C[C@]1(Cn2ccnn2)[C@H](C(=O)O)N2C(=O)C[C@H]2S1(=O)=O [tazobactam],zone size of cephalothin combined with the inhibitor,[3],16 mm
